Results reported in the kinase profiling compilation of Christmann-Franck et al. (2016).

Columns and labels:
Assay in all cases: radiometric filter-binding kinase assay
CSNK2A1 (human) = CSNK2A1 (human) (UniProt P68400); settings: compound 100.0 µM; ATP 5 µM
SRC (human) = SRC (human) (UniProt P12931); settings: compound 100.0 µM; ATP 50 µM
TBK1 (human) = TBK1 (human) (UniProt Q9UHD2); settings: compound 100.0 µM; ATP 50 µM
MAPKAPK3 (human) = MAPKAPK3 (human) (UniProt Q16644); settings: compound 100.0 µM; ATP 20 µM
MAPKAPK5 (human) = MAPKAPK5 (human) (UniProt Q8IW41); settings: compound 100.0 µM; ATP 20 µM
MAP3K9 (human) = MAP3K9 (human) (UniProt P80192); settings: compound 100.0 µM; ATP 20 µM
EPHB1 (human) = EPHB1 (human) (UniProt P54762); settings: compound 100.0 µM; ATP 20 µM
MAPK13 (human) = MAPK13 (human) (UniProt O15264); settings: compound 100.0 µM; ATP 5 µM
BRSK2 (human) = BRSK2 (human) (UniProt Q8IWQ3); settings: compound 100.0 µM; ATP 50 µM
PIM2 (human) = PIM2 (human) (UniProt Q9P1W9); settings: compound 100.0 µM; ATP 5 µM
Chain of PIM2 (human) (Q9P1W9 whole entry, looked up): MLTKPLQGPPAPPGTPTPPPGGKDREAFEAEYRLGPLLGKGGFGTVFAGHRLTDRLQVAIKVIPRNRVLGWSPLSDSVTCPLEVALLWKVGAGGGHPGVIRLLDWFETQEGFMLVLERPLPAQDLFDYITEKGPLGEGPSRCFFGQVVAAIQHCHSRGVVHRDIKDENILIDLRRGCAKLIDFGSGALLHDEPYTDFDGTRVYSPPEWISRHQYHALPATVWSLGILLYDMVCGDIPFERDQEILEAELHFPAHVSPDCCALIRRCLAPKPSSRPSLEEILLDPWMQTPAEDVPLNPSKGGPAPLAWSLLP

GCK (human) = GCK (human) (UniProt Q12851); settings: compound 100.0 µM; ATP 20 µM
PAK4 (human) = PAK4 (human) (UniProt O96013); settings: compound 100.0 µM; ATP 5 µM
PAK7 (human) = PAK7 (human) (UniProt Q9P286); settings: compound 100.0 µM; ATP 20 µM
Chain of PAK7 (human) (Q9P286 whole entry, looked up): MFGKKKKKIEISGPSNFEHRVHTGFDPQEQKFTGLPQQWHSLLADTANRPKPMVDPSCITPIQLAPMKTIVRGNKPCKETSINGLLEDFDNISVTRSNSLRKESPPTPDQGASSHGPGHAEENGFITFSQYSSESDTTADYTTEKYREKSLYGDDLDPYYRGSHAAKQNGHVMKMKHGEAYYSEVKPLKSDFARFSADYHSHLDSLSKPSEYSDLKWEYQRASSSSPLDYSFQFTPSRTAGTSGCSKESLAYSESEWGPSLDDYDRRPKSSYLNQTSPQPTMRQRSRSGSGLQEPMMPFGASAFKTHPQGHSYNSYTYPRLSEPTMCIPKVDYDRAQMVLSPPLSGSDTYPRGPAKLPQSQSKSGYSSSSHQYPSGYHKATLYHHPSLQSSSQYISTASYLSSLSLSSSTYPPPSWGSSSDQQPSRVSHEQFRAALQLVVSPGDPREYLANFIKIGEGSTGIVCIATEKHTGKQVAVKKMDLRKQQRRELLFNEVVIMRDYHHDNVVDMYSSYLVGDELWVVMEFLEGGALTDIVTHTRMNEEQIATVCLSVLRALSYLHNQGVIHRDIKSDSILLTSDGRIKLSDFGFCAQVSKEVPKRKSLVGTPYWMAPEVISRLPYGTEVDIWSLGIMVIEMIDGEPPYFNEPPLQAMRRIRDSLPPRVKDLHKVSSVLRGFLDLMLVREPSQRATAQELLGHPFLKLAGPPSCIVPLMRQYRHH

MAPK8 (human) = MAPK8 (human) (UniProt P45983); settings: compound 100.0 µM; ATP 20 µM
PRKCG (human) = PRKCG (human) (UniProt P05129); settings: compound 100.0 µM; ATP 20 µM
DAPK1 (human) = DAPK1 (human) (UniProt P53355); settings: compound 100.0 µM; ATP 5 µM
EPHA4 (human) = EPHA4 (human) (UniProt P54764); settings: compound 100.0 µM; ATP 50 µM
MYLK (human) = MYLK (human) (UniProt Q15746); settings: compound 100.0 µM; ATP 50 µM
BRSK1 (human) = BRSK1 (human) (UniProt Q8TDC3); settings: compound 100.0 µM; ATP 20 µM
Chain of BRSK1 (human) (Q8TDC3 whole entry, looked up): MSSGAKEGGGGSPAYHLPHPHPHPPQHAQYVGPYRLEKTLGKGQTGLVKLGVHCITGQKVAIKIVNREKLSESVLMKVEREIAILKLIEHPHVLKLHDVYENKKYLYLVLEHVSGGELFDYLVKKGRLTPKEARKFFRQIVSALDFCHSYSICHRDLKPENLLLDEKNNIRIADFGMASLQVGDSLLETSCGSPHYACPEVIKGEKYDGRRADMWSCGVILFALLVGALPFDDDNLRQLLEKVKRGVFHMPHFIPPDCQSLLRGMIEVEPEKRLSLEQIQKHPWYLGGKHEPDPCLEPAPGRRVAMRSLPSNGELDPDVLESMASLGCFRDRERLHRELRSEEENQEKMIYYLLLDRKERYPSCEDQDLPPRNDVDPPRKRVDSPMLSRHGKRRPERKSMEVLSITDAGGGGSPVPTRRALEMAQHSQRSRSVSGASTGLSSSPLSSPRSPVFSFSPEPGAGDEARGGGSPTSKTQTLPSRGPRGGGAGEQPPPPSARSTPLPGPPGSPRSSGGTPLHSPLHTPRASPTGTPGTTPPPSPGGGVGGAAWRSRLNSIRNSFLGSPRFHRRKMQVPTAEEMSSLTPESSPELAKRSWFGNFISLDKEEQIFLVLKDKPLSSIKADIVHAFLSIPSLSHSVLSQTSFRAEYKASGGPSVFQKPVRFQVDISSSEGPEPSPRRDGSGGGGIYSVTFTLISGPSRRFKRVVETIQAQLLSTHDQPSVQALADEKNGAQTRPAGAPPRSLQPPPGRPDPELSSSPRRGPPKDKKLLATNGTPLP

RPS6KA5 KD1 KD2 (human) = RPS6KA5 KD1 KD2 (human) (UniProt O75582); settings: compound 100.0 µM; ATP 20 µM
Chain of RPS6KA5 KD1 KD2 (human) (O75582 whole entry, looked up): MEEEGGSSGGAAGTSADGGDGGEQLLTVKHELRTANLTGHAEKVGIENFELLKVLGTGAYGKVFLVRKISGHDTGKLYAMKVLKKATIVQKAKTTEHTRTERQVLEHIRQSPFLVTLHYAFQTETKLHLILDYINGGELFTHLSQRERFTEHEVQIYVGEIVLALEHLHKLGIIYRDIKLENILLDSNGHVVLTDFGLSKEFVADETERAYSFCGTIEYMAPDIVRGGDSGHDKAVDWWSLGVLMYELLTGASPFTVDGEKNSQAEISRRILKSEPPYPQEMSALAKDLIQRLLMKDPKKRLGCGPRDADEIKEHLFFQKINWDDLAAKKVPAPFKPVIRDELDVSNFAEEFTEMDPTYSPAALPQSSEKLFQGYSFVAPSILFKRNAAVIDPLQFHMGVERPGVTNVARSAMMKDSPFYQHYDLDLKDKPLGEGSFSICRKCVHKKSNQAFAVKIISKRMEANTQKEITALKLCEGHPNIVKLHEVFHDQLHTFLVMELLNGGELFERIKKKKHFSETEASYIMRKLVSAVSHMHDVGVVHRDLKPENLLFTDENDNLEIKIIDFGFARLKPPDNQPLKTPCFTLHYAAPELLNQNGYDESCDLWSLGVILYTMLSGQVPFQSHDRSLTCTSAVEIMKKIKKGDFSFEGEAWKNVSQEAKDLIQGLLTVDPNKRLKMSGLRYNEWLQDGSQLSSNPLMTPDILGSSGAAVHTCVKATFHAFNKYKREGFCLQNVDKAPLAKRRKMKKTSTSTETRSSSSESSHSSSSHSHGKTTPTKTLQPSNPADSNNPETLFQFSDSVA

IKBKE (human) = IKBKE (human) (UniProt Q14164); settings: compound 100.0 µM; ATP 50 µM
EPHA2 (human) = EPHA2 (human) (UniProt P29317); settings: compound 100.0 µM; ATP 50 µM
PRKCZ (human) = PRKCZ (human) (UniProt Q05513); settings: compound 100.0 µM; ATP 5 µM
[1] = system: PAK2 (human), Q13177 [T402E]; settings: compound 100.0 µM; ATP 20 µM
CHEK2 (human) = CHEK2 (human) (UniProt O96017); settings: compound 100.0 µM; ATP 20 µM
ERBB4 (human) = ERBB4 (human) (UniProt Q15303); settings: compound 100.0 µM; ATP 5 µM
Chain of ERBB4 (human) (Q15303 whole entry, looked up): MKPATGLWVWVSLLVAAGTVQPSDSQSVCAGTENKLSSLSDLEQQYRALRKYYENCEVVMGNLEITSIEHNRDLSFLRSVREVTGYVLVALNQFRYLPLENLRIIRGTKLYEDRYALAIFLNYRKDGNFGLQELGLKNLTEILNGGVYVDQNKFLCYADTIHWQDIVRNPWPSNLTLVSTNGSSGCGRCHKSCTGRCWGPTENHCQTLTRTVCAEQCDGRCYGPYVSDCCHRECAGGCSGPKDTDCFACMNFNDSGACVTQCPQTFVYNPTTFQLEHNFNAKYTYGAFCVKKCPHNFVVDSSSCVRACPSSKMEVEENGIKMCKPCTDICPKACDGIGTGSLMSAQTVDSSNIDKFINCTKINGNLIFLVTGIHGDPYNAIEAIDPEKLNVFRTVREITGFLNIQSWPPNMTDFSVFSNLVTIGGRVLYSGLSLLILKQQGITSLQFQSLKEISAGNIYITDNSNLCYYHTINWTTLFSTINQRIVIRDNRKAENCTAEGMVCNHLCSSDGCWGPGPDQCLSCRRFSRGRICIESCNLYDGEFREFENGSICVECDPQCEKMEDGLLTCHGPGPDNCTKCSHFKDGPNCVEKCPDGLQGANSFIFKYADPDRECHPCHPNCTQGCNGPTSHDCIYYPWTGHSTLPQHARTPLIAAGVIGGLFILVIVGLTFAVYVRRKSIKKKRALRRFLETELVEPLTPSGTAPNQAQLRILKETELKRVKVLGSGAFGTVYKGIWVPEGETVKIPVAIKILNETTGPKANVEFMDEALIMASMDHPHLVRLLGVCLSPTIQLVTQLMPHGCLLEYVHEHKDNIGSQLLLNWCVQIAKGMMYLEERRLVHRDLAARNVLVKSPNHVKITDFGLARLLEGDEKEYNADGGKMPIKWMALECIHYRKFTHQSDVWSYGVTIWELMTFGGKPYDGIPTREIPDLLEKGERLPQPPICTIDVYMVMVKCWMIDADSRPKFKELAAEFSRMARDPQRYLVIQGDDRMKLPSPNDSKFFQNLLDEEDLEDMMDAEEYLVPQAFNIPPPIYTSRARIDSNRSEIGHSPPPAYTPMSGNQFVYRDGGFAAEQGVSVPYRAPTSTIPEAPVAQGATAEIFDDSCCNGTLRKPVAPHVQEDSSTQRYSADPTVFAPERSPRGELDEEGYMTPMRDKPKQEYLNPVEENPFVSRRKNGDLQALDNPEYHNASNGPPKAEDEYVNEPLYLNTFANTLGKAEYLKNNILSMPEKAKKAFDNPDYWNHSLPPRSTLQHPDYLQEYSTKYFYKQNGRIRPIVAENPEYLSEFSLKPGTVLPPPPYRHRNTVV

RPS6KA3 KD1 KD2 (human) = RPS6KA3 KD1 KD2 (human) (UniProt P51812); settings: compound 100.0 µM; ATP 50 µM
TAOK1 (human) = TAOK1 (human) (UniProt Q7L7X3); settings: compound 100.0 µM; ATP 20 µM
MAPK14 (human) = MAPK14 (human) (UniProt Q16539); settings: compound 100.0 µM; ATP 50 µM
MAPK11 (human) = MAPK11 (human) (UniProt Q15759); settings: compound 100.0 µM; ATP 20 µM
Chain of MAPK11 (human) (Q15759 whole entry, looked up): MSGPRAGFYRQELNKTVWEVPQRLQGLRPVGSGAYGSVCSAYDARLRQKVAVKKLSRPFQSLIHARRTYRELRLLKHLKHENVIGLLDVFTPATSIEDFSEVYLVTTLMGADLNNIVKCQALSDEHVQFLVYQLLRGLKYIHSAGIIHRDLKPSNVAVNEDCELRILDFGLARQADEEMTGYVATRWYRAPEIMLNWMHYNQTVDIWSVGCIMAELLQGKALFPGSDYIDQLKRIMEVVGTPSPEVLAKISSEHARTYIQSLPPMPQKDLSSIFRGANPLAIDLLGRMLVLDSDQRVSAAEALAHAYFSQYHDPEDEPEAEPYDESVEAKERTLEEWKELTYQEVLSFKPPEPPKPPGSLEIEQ

FGFR1 (human) = FGFR1 (human) (UniProt P11362); settings: compound 100.0 µM; ATP 20 µM
HIPK1 (human) = HIPK1 (human) (UniProt Q86Z02); settings: compound 100.0 µM; ATP 20 µM
MAPK9 (human) = MAPK9 (human) (UniProt P45984); settings: compound 100.0 µM; ATP 20 µM
NTRK1 (human) = NTRK1 (human) (UniProt P04629); settings: compound 100.0 µM; ATP 20 µM
DYRK3 (human) = DYRK3 (human) (UniProt O43781); settings: compound 100.0 µM; ATP 5 µM
MAPK1 (human) = MAPK1 (human) (UniProt P28482); settings: compound 100.0 µM; ATP 20 µM
Chain of MAPK1 (human) (P28482 whole entry, looked up): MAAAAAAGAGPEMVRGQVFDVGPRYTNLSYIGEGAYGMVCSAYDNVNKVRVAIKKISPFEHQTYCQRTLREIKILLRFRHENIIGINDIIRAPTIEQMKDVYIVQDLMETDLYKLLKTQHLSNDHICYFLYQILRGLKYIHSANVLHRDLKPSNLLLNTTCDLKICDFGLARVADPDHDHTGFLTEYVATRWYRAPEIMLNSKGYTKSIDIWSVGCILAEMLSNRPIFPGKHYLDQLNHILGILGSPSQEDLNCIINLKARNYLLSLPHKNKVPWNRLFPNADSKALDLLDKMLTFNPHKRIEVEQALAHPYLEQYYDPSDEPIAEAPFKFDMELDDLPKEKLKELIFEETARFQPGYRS

Chain of CSNK2A1 (human) (P68400 whole entry, looked up): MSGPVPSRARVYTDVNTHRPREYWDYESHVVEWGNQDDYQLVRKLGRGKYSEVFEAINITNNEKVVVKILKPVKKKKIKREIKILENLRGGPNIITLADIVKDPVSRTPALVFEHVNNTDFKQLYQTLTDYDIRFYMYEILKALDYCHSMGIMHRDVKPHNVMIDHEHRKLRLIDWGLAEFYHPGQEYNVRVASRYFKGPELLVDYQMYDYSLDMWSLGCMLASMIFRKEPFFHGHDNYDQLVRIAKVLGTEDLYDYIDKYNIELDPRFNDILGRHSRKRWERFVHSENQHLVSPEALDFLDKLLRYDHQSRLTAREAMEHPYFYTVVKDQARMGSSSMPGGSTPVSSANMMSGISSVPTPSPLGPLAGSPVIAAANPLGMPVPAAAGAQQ

Structure (SMILES)	inhibition (CSNK2A1 (human))	inhibition (SRC (human))	inhibition (TBK1 (human))	inhibition (MAPKAPK3 (human))	inhibition (MAPKAPK5 (human))	inhibition (MAP3K9 (human))	inhibition (EPHB1 (human))	inhibition (MAPK13 (human))	inhibition (BRSK2 (human))	inhibition (PIM2 (human))	inhibition (GCK (human))	inhibition (PAK4 (human))	inhibition (PAK7 (human))	inhibition (MAPK8 (human))	inhibition (PRKCG (human))	inhibition (DAPK1 (human))	inhibition (EPHA4 (human))	inhibition (MYLK (human))	inhibition (BRSK1 (human))	inhibition (RPS6KA5 KD1 KD2 (human))	further results
O=c1c(NC(=S)NCc2ccccc2)cnc2[nH]ccn12	3%	0%	0%	21%	0%	0%	3%	0%	18%	4%	0%	18%	0%	0%	0%	0%	15%	0%	2%	0%	inhibition (IKBKE (human)): 0%; inhibition (EPHA2 (human)): 12%; inhibition (PRKCZ (human)): 0%; inhibition [1]: 5%; inhibition (CHEK2 (human)): 20%; inhibition (ERBB4 (human)): 34%; inhibition (RPS6KA3 KD1 KD2 (human)): 20%; inhibition (TAOK1 (human)): 0%; inhibition (MAPK14 (human)): 0%; inhibition (MAPK11 (human)): 7%; inhibition (FGFR1 (human)): 6%; inhibition (HIPK1 (human)): 0%; inhibition (MAPK9 (human)): 7%; inhibition (NTRK1 (human)): 0%; inhibition (DYRK3 (human)): 10%; inhibition (MAPK1 (human)): 0%
CC(C)(C)Nc1c(C2CC2)nc2[nH]cnn12	9%	0%	1%	10%	13%	0%	0%	0%	26%	15%	8%	0%	18%	0%	9%	0%	9%	14%	0%	0%	inhibition (IKBKE (human)): 0%; inhibition (EPHA2 (human)): 0%; inhibition (PRKCZ (human)): 0%; inhibition [1]: 10%; inhibition (CHEK2 (human)): 0%; inhibition (ERBB4 (human)): 19%; inhibition (RPS6KA3 KD1 KD2 (human)): 13%; inhibition (TAOK1 (human)): 0%; inhibition (MAPK14 (human)): 0%; inhibition (MAPK11 (human)): 0%; inhibition (FGFR1 (human)): 65%; inhibition (HIPK1 (human)): 6%; inhibition (MAPK9 (human)): 3%; inhibition (NTRK1 (human)): 27%; inhibition (DYRK3 (human)): 7%; inhibition (MAPK1 (human)): 0%
CC(C)(C)Nc1c(COCc2ccccc2)nc2[nH]cnn12	5%	12%	9%	38%	44%	14%	0%	0%	22%	16%	0%	0%	0%	2%	8%	14%	4%	24%	0%	0%	inhibition (IKBKE (human)): 0%; inhibition (EPHA2 (human)): 0%; inhibition (PRKCZ (human)): 0%; inhibition [1]: 14%; inhibition (CHEK2 (human)): 19%; inhibition (ERBB4 (human)): 53%; inhibition (RPS6KA3 KD1 KD2 (human)): 48%; inhibition (TAOK1 (human)): 0%; inhibition (MAPK14 (human)): 5%; inhibition (MAPK11 (human)): 3%; inhibition (FGFR1 (human)): 40%; inhibition (HIPK1 (human)): 0%; inhibition (MAPK9 (human)): 10%; inhibition (NTRK1 (human)): 6%; inhibition (DYRK3 (human)): 17%; inhibition (MAPK1 (human)): 0%
